pEC50: −log10 of the molar value. Non-standard residues stand in square brackets, D forms with d. Residues, ends and D or L forms follow the SMILES beside them. 1Nal = N[C@@H](Cc1cccc2ccccc12)C(=O)O; β3hI = CC[C@H](C)[C@H](N)CC(=O)O; β3hF = N[C@H](CC(=O)O)Cc1ccccc1; hSer = N[C@@H](CCO)C(=O)O; Nle = CCCC[C@H](N)C(=O)O; Aib = CC(C)(N)C(=O)O; βAla = NCCC(=O)O
Target: T1, human PTH-1 receptor (Homo sapiens, UniProt Q03431)
T1 construct: expressed in transfected cells; host or cells: HEK-293
T1 sequence (Q03431 27-593): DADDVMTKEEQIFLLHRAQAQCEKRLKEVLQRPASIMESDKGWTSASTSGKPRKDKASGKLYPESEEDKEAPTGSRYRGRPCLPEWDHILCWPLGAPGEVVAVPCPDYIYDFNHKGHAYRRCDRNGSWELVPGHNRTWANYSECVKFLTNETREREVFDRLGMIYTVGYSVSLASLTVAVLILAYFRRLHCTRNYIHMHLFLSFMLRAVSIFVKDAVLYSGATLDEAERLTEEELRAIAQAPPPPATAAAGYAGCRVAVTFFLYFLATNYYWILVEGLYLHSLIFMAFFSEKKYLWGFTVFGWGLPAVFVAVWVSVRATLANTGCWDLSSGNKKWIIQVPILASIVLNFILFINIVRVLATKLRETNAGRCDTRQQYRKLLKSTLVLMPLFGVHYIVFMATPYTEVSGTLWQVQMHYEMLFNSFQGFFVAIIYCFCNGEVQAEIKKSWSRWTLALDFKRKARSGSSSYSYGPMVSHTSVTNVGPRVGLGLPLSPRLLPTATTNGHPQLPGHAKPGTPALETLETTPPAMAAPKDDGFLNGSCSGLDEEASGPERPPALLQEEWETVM
Assay: Reporter gene assay (CRE-luciferase) for agonist activity in transiently transfected HEK-293 cells
Type: cell-based
Details: for hPTHR-2/hPTHR-1: ratio of EC50 values, selectivity for hPTH-1 receptor over hPTH-2 receptor
Summary of the method: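 HEK-293 cells transiently transfected with SV40-driven human PTH-1 receptor and CRE-luciferase reporter, exposed to serial compound dilutions for 4-5 h, then lysed for luciferase readout; efficacy and EC50 by non-linear regression, PTH (1-34) as internal control, n≥3. Selectivity measured in analogous human PTH-2 receptor luciferase reporter assays.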

| SMILES | pEC50 | hPTHR-2/hPTHR-1 (Table 3) | selectivity for the hPTH-1 receptor over the hPTH-2 receptor (Table 3) [fold] |
| --- | --- | --- | --- |
| CCCC[C@H](NC(=O)CCNC(=O)[C@H](CC(N)=O)NC(=O)[C@H](CC(C)C)NC(=O)[C@H](Cc1c[nH]cn1)NC(=O)[C@H](CCCCN)NC(=O)CNC(=O)[C@H](CC(C)C)NC(=O)[C@H](CC(N)=O)NC(=O)[C@H](Cc1c[nH]cn1)NC(=O)[C@H](CCCC)NC(=O)[C@H](CC(C)C)NC(=O)[C@H](CCC(N)=O)NC(=O)[C@@H](NC(=O)[C@H](CCC(=O)O)NC(=O)[C@H](CO)NC(=O)[C@@H](NC(=O)[C@@H](N)CO)C(C)C)[C@@H](C)CC)C(=O)N[C@@H](CCC(=O)O)C(=O)N[C@@H](CCCNC(=N)N)C(=O)N[C@H](C(=O)N[C@@H](CCC(=O)O)C(=O)N[C@@H](Cc1cccc2ccccc12)C(=O)N[C@@H](CC(C)C)C(=O)N[C@@H](CCCNC(=N)N)C(=O)N[C@@H](CCCCN)C(=O)N[C@@H](CC(C)C)C(=O)N[C@@H](CC(C)C)C(=O)N[C@@H](CCC(N)=O)C(=O)N[C@@H](CC(=O)O)C(=O)N[C@H](C(=O)N[C@@H](Cc1c[nH]cn1)C(=O)N[C@@H](CC(N)=O)C(=O)N[C@@H](Cc1ccccc1)C(N)=O)C(C)C)C(C)C [SEQ ID NO: 15, [Nle^8,18, β-Ala^17,1-Nal^23, Leu^27] hPTH (1-34)-NH2] (H-SVSEIQL[Nle]HNLGKHLN[βAla][Nle]ERVE[1Nal]LRKLLQDVHNF-NH2) | 9.92 | 389 |  |
| CCCC[C@H](NC(=O)[C@H](CC(C)C)NC(=O)[C@H](CCC(N)=O)NC(=O)[C@@H](NC(=O)[C@H](CCC(=O)O)NC(=O)[C@H](CO)NC(=O)[C@@H](NC(=O)[C@@H](N)CO)C(C)C)[C@@H](C)CC)C(=O)N[C@@H](Cc1c[nH]cn1)C(=O)N[C@@H](CC(N)=O)C(=O)N[C@@H](CC(C)C)C(=O)NCC(=O)N[C@@H](CCCCN)C(=O)N[C@@H](Cc1c[nH]cn1)C(=O)N[C@@H](CC(C)C)C(=O)N[C@@H](CCC(=O)O)C(=O)N[C@@H](CO)C(=O)N[C@H](CC(=O)N[C@@H](CCC(=O)O)C(=O)N[C@@H](CCCNC(=N)N)C(=O)N[C@H](C(=O)N[C@@H](CCC(=O)O)C(=O)N[C@@H](Cc1cccc2ccccc12)C(=O)N[C@@H](CC(C)C)C(=O)N[C@@H](CCCNC(=N)N)C(=O)N[C@@H](CCCCN)C(=O)N[C@@H](CC(C)C)C(=O)N[C@@H](CC(C)C)C(=O)N[C@@H](CCC(N)=O)C(=O)N[C@@H](CC(=O)O)C(=O)N[C@H](C(=O)N[C@@H](Cc1c[nH]cn1)C(=O)N[C@@H](CC(N)=O)C(=O)N[C@@H](Cc1ccccc1)C(N)=O)C(C)C)C(C)C)[C@@H](C)CC [SEQ ID NO: 21, [Nle^8, Glu^16, β-hIle^18,1-Nal^23, Leu^27] hPTH (1-34)-NH2] (H-SVSEIQL[Nle]HNLGKHLES[β3hI]ERVE[1Nal]LRKLLQDVHNF-NH2) |  | 234 |  |
| CCCC[C@H](NC(=O)[C@H](CC(C)C)NC(=O)[C@H](CCC(N)=O)NC(=O)[C@@H](NC(=O)[C@H](CCC(=O)O)NC(=O)[C@H](CO)NC(=O)[C@@H](NC(=O)C(C)(C)N)C(C)C)[C@@H](C)CC)C(=O)N[C@@H](Cc1c[nH]cn1)C(=O)N[C@@H](CC(N)=O)C(=O)N[C@@H](CC(C)C)C(=O)NCC(=O)N[C@@H](CCCCN)C(=O)N[C@@H](Cc1c[nH]cn1)C(=O)N[C@@H](CC(C)C)C(=O)N[C@@H](CC(N)=O)C(=O)NCCC(=O)N[C@@H](CCOC)C(=O)N[C@@H](CCC(=O)O)C(=O)N[C@@H](CCCNC(=N)N)C(=O)N[C@H](C(=O)N[C@@H](CCC(=O)O)C(=O)N[C@@H](Cc1cccc2ccccc12)C(=O)N[C@@H](CC(C)C)C(=O)N[C@@H](CCCNC(=N)N)C(=O)N[C@@H](CCCCN)C(=O)N[C@@H](CC(C)C)C(=O)N[C@@H](CC(C)C)C(=O)N[C@@H](CCC(N)=O)C(=O)N[C@@H](CC(=O)O)C(=O)N[C@H](C(=O)N[C@@H](Cc1c[nH]cn1)C(=O)N[C@@H](CC(N)=O)C(=O)N[C@@H](Cc1ccccc1)C(N)=O)C(C)C)C(C)C [SEQ ID NO: 3, [Aib^1, Nle^8, β-Ala^17, hSer(OMe)^18,1-Nal^23, Leu^27] hPTH (1-34)-NH2] (H-[Aib]VSEIQL[Nle]HNLGKHLN[βAla][hSer](Me)ERVE[1Nal]LRKLLQDVHNF-NH2; N-terminus assumed) | 10.22 | 766 | 766 |
| CCCC[C@H](NC(=O)[C@H](CC(C)C)NC(=O)[C@H](CCC(N)=O)NC(=O)[C@@H](NC(=O)[C@H](CCC(=O)O)NC(=O)[C@H](CO)NC(=O)[C@@H](NC(=O)[C@@H](N)CO)C(C)C)[C@@H](C)CC)C(=O)N[C@@H](Cc1c[nH]cn1)C(=O)N[C@@H](CC(N)=O)C(=O)N[C@@H](CC(C)C)C(=O)NCC(=O)N[C@@H](CCCCN)C(=O)N[C@@H](Cc1c[nH]cn1)C(=O)N[C@@H](CC(C)C)C(=O)N[C@@H](CC(N)=O)C(=O)N[C@@H](CO)C(=O)N[C@H](CC(=O)N[C@@H](CCC(=O)O)C(=O)N[C@@H](CCCNC(=N)N)C(=O)N[C@H](C(=O)N[C@@H](CCC(=O)O)C(=O)N[C@@H](Cc1cccc2ccccc12)C(=O)N[C@@H](CC(C)C)C(=O)N[C@@H](CCCNC(=N)N)C(=O)N[C@@H](CCCCN)C(=O)N[C@@H](CC(C)C)C(=O)N[C@@H](CC(C)C)C(=O)N[C@@H](CCC(N)=O)C(=O)N[C@@H](CC(=O)O)C(=O)N[C@H](C(=O)N[C@@H](Cc1c[nH]cn1)C(=O)N[C@@H](CCC(=O)O)C(=O)N[C@@H](Cc1ccccc1)C(N)=O)C(C)C)C(C)C)[C@@H](C)CC [SEQ ID NO: 27, [Nle^8, β-hIle^18,1-Nal^23, Leu^27, Glu^33] hPTH (1-34)-NH2] (H-SVSEIQL[Nle]HNLGKHLNS[β3hI]ERVE[1Nal]LRKLLQDVHEF-NH2; N-terminus assumed) | 9.92 | 344 |  |
| CCCC[C@H](NC(=O)[C@H](CC(C)C)NC(=O)[C@H](CCC(N)=O)NC(=O)[C@@H](NC(=O)[C@H](CCC(=O)O)NC(=O)[C@H](CO)NC(=O)[C@@H](NC(=O)C(C)(C)N)C(C)C)[C@@H](C)CC)C(=O)N[C@@H](Cc1c[nH]cn1)C(=O)N[C@@H](CC(N)=O)C(=O)N[C@@H](CC(C)C)C(=O)NCC(=O)N[C@@H](CCCCN)C(=O)N[C@@H](Cc1c[nH]cn1)C(=O)N[C@@H](CC(C)C)C(=O)N[C@@H](CC(N)=O)C(=O)N[C@@H](CO)C(=O)N[C@H](CC(=O)N[C@@H](CCC(=O)O)C(=O)N[C@@H](CCCNC(=N)N)C(=O)N[C@H](C(=O)N[C@@H](CCC(=O)O)C(=O)N[C@@H](Cc1cccc2ccccc12)C(=O)N[C@@H](CC(C)C)C(=O)N[C@@H](CCCNC(=N)N)C(=O)N[C@@H](CCCCN)C(=O)N[C@@H](CC(C)C)C(=O)N[C@@H](CC(C)C)C(=O)N[C@@H](CCC(N)=O)C(=O)N[C@@H](CC(=O)O)C(=O)N[C@H](C(=O)N[C@@H](Cc1c[nH]cn1)C(=O)N[C@@H](CC(N)=O)C(=O)N[C@@H](Cc1ccccc1)C(N)=O)C(C)C)C(C)C)Cc1ccccc1 [SEQ ID NO: 42, [Aib^1, Nle^8, β-hPhe^18,1-Nal^23, Leu^27 hPTH (1-34)-NH2] (H-[Aib]VSEIQL[Nle]HNLGKHLNS[β3hF]ERVE[1Nal]LRKLLQDVHNF-NH2; N-terminus assumed) | 10.22 | 88 |  |
